The values below come from patent publication US20070299087A1, “New Compounds 319” (AstraZeneca AB, priority 2006, published 2007).

Structures can show the parent of a compound that is named as a salt.

What is called IC50 is the concentration needed to halve the response being measured.

In this assay the target is T1, human β-Secretase (sBACE-Fc) (Homo sapiens, UniProt P56817).
T1 construct: The soluble part of the human β-Secretase (AA 1-AA 460) was cloned; Fc domain of IgG1 (C); made in house
T1 sequence (P56817 22-460): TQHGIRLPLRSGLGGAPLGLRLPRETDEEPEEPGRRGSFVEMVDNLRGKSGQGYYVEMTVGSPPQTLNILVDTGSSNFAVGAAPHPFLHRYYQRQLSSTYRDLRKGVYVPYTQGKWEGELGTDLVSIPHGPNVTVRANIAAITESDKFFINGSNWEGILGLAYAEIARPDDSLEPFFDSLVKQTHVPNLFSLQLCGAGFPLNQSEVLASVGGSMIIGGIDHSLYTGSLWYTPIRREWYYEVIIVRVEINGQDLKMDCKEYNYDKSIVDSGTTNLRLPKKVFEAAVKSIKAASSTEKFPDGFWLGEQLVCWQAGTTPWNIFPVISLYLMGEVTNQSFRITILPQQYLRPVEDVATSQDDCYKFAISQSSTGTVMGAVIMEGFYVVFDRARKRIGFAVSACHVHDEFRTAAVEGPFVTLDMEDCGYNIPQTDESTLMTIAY
The assay is described as follows: TR-FRET assay (β-secretase enzyme, substrate (Europium)[…](Qsy7)). It is filed as biochemical. Here is the method:
The enzyme used in the IGEN Cleavage-, Fluorescent-, TR-FRET- and BiaCore assays is described as follows:
The soluble part of the human β-Secretase (AA 1-AA 460) was cloned into the ASP2-Fc10-1-IRES-GFP-neoK mammalian expression vector. The gene was fused to the Fc domain of IgG1 (affinity tag) and stably cloned into HEK 293 cells. Purified sBACE-Fc is stored in Tris buffer, pH 9.2 and has a purity of 95%.
Enzyme was diluted to 6 μg/mL and the substrate (Europium)[…](Qsy7) to 200 nM in reaction buffer (NaAcetate, chaps, triton x-100, EDTA pH 4.5). Compounds were diluted to the desired concentration in dimethyl sulfoxide (final dimethyl sulfoxide concentration in assay is 5%). The assay was done in a Costar 384 well round bottom, low volume, non-binding surface plate (Corning #3676). Enzyme (9 μL) and 1 μL of compound in dimethyl sulfoxide was added to the plate, mixed and pre-incubated for 10 min. Substrate (10 μL) was added and the reaction proceeded in the dark for 15 min at RT. The reaction was stopped with the addition of 7 μL NaAcetate, pH 9. The fluorescence of the product was measured on a Victor II plate reader with an excitation wavelength of 340 nm and an emission wavelength of 615 nm. […] The dimethyl sulfoxide control defined the 100% activity level and 0% activity was defined by exclusion of the enzyme (using reaction buffer instead).
Background: TR-FRET usually uses a lanthanide donor and a delayed reading to cut background.

Turning to `NC1=NC(c2ccncc2)(c2cccc(-c3cccc(Cl)c3Cl)c2)C2=NCCCN12` (centres unmarked) [Example 28, 8-(2′,3′-Dichlorobiphenyl-3-yl)-8-pyridin-4-yl-2,3,4,8-tetrahydroimidazo[1,5-a]pyrimidin-6-amine 0.25 acetate], half-maximal inhibition (IC50) required 5070 nM.
The figure for `NC1=NC(c2ccoc2)(c2cccc(-c3cc(Cl)cc(Cl)c3)c2)C2=NCCCN12` (centres unmarked) [Example 43, 8-(3′,5′-Dichlorobiphenyl-3-yl)-8-(3-furyl)-2,3,4,8-tetrahydroimidazo[1,5-a]pyrimidin-6-amine acetate] is 152 nM.
The figure for `NC1=NC(c2cccc(-c3cccnc3F)c2)(c2ccncc2F)C2=NCC(F)(F)CN12` (centres unmarked) [Example 90, 3,3-Difluoro-8-(3-fluoropyridin-4-yl)-8-[3-(2-fluoropyridin-3-yl)phenyl]-2,3,4,8-tetrahydroimidazo[1,5-a]pyrimidin-6-amine] is 290 nM; for `NC1=NC(c2ccncc2)(c2cccc(-c3cc(Cl)cnc3F)c2)C2=NCC(F)(F)CN12` (centres unmarked) [Example 73, 3,3-Difluoro-8-[3-(5-Chloro-2-fluoropyridin-3-yl)phenyl]-8-pyridin-4-yl-2,3,4,8-tetrahydroimidazo[1,5-a]pyrimidin-6-amine acetate] it is 61 nM.
The figure for `NC1=NC(c2ccncc2)(c2cccc(-c3cc(Cl)ccc3Cl)c2)C2=NCCCN12` (centres unmarked) [Example 36, 8-(2′,5′-Dichlorobiphenyl-3-yl)-8-pyridin-4-yl-2,3,4,8-tetrahydroimidazo[1,5-a]pyrimidin-6-amine 0.25 acetate] is 267 nM; for `COc1ccc(F)c(-c2cccc(C3(c4ccncc4)N=C(N)N4CCCN=C43)c2)c1` (centres unmarked) [Example 19, 8-(2′-Fluoro-5′-methoxybiphenyl-3-yl)-8-pyridin-4-yl-2,3,4,8-tetrahydroimidazo[1,5-a]pyrimidin-6-amine 0.25 acetate] it is 74 nM; for `NC1=NC(c2ccncc2)(c2cccc(-c3cccc(Cl)c3)c2)C2=NCCCN12` (centres unmarked) [Example 16, 8-(3′-Chlorobiphenyl-3-yl)-8-pyridin-4-yl-2,3,4,8-tetrahydroimidazo[1,5-a]pyrimidin-6-amine 0.25 acetate] it is 53 nM.
As to `Cc1nc(C2(c3cccc(-c4cc(Cl)cc(Cl)c4)c3)N=C(N)N3CCCN=C32)cs1` (centres unmarked) [Example 57, 8-(3′,5′-Dichlorobiphenyl-3-yl)-8-(2-methyl-1,3-thiazol-4-yl)-2,3,4,8-tetrahydroimidazo[1,5-a]pyrimidin-6-amine acetate], the IC50 was 3790 nM.
The figure for `COc1cncc(-c2cc(C3(c4ccncc4)N=C(N)N4CC(F)(F)CN=C43)ccc2F)c1` (centres unmarked) [Example 83, 3,3-Difluoro-8-[4-fluoro-3-(5-methoxypyridin-3-yl)phenyl]-8-pyridin-4-yl-2,3,4,8-tetrahydroimidazo[1,5-a]pyrimidin-6-amine 0.5 acetate] is 48 nM; for `CCOc1cccc(-c2cccc(C3(c4ccncc4)N=C(N)N4CCCN=C43)c2)c1` (centres unmarked) [Example 30, 8-(3′-Ethoxybiphenyl-3-yl)-8-pyridin-4-yl-2,3,4,8-tetrahydroimidazo[1,5-a]pyrimidin-6-amine 0.25 acetate] it is 328 nM.
The figure for `N#Cc1cccc(-c2cccc(C3(c4ccncc4)N=C(N)N4CCCN=C43)c2)c1` (centres unmarked) [Example 13, 3′-(6-Amino-8-pyridin-4-yl-2,3,4,8-tetrahydroimidazo[1,5-a]pyrimidin-8-yl)-biphenyl-3-carbonitrile hydrochloride] is 353 nM.
The figure for `NC1=NC(c2ccncc2)(c2cccc(-c3cncc(F)c3)c2)C2=NCC(F)(F)CN12` (centres unmarked) [Example 71, 3,3-Difluoro-8-[3-(5-fluoropyridin-3-yl)phenyl]-8-pyridin-4-yl-2,3,4,8-tetrahydroimidazo[1,5-a]pyrimidin-6-amine acetate] is 120 nM.
In turn, `NC1=NC(c2ccncc2)(c2cccc(-c3cncc(F)c3)c2)C2=NCCCN12` (centres unmarked) [Example 34, 8-[3-(5-Fluoropyridin-3-yl)phenyl]-8-pyridin-4-yl-2,3,4,8-tetrahydroimidazo[1,5-a]pyrimidin-6-amine 0.25 acetate] came in with a 50% inhibitory concentration (IC50) of 186 nM. This IC50 is about 1.6-fold higher than that of the molecule before.
The figure for `NC1=NC(c2ccncc2)(c2cccc(-c3cccc(C(F)(F)F)c3)c2)C2=NCCCN12` (centres unmarked) [Example 24, 8-Pyridin-4-yl-8-[3′-(trifluoromethyl)biphenyl-3-yl]-2,3,4,8-tetrahydroimidazo[1,5-a]pyrimidin-6-amine 0.25 acetate] is 390 nM.
The figure for `NC1=NC(c2ccsc2)(c2cccc(-c3cc(Cl)cc(Cl)c3)c2)C2=NCCCN12` (centres unmarked) [Example 63, 8-(3′,5′-Dichlorobiphenyl-3-yl)-8-(3-thienyl)-2,3,4,8-tetrahydroimidazo[1,5-a]pyrimidin-6-amine acetate] is 68 nM; for `NC1=NC(c2ccncc2)(c2cccc(-c3cc(Cl)cc(Cl)c3)c2)C2=NCCCN12` (centres unmarked) [Example 26, 8-(3′,5′-Dichlorobiphenyl-3-yl)-8-pyridin-4-yl)-2,3,4,8-tetrahydroimidazo[1,5-a]pyrimidin-6-amine 0.25 acetate] it is 25 nM.
The molecule `N#Cc1cc(-c2cccc(C3(c4ccncc4)N=C(N)N4CCCN=C43)c2)ccc1F` (centres unmarked) [Example 22, 3′-(6-amino-8-pyridin-4-yl-2,3,4,8-tetrahydroimidazo[1,5-a]pyrimidin-8-yl)-4-fluorobiphenyl-3-carbonitrile 0.25 acetate] showed an IC50 of 418 nM. Against the preceding molecule, the IC50 is about 17-fold higher.
The figure for `NC1=NC(c2ccoc2)(c2cccc(-c3cccnc3F)c2)C2=NCCCN12` (centres unmarked) [Example 44, 8-[3-(2-Fluoropyridin-3-yl)phenyl]-8-(3-furyl)-2,3,48-tetrahydroimidazo[1,5-a]pyrimidin-6-amine acetate] is 656 nM; for `COc1cccc(-c2cc(C3(c4ccncc4)N=C(N)N4CC(F)(F)CN=C43)ccc2F)c1F` (centres unmarked) [Example 82, 3,3-Difluoro-8-(2′,6-difluoro-3′-methoxybiphenyl-3-yl)-8-pyridin-4-yl-2,3,4,8-tetrahydroimidazo[1,5-a]pyrimidin-6-amine acetate] it is 42 nM; for `NC1=NC(c2ccncc2)(c2cccc(-c3cc(Cl)ccc3F)c2)C2=NCCCN12` (centres unmarked) [Example 31, 8-(5′-Chloro-2′-fluorobiphenyl-3-yl)-8-pyridin-4-yl-2,3,4,8-tetrahydroimidazo[1,5-a]pyrimidin-6-amine 0.25 acetate] it is 79 nM.
As for `COc1cc(-c2cccc(C3(c4ccncc4)N=C(N)N4CCCN=C43)c2)ccc1F` (centres unmarked) [Example 32, 8-(4′-Fluoro-3′-methoxybiphenyl-3-yl)-8-pyridin-4-yl-2,3,4,8-tetrahydroimidazo[1,5-a]pyrimidin-6-amine 0.25 acetate], 515 nM corresponded to half-maximal inhibition (IC50).
The figure for `COc1cncc(-c2cccc(C3(c4ccncc4)N=C(N)N4CCCN=C43)c2)c1` (centres unmarked) [Example 15, 8-[3-(5-Methoxypyridin-3-yl)phenyl]-8-pyridin-4-yl-2,3,4,8-tetrahydroimidazo[1,5-a]pyrimidin-6-amine 0.25 acetate] is 117 nM; for `COc1cccc(-c2cccc(C3(c4ccncc4)N=C(N)N4CCCN=C43)c2)c1` (centres unmarked) [Example 14, 8-(3′-Methoxybiphenyl-3-yl)-8-pyridin-4-yl-2,3,4,8-tetrahydroimidazo[1,5-a]pyrimidin-6-amine 0.25 acetate] it is 72 nM; for `NC1=NC(c2ccncc2)(c2cccc(-c3cccnc3F)c2)C2=NCC(F)(F)CN12` (centres unmarked) [Example 68, 3,3-Difluoro-8-[3-(2-fluoropyridin-3-yl)phenyl]-8-pyridin-4-yl-2,3,4,8-tetrahydroimidazo[1,5-a]pyrimidin-6-amine 0.75 acetate] it is 59 nM.
The figure for `NC1=NC(c2ccncc2)(c2cccc(-c3cccc(Cl)c3F)c2)C2=NCCCN12` (centres unmarked) [Example 23, 8-(3′-Chloro-2′-fluorobiphenyl-3-yl)-8-pyridin-4-yl-2,3,4,8-tetrahydroimidazo[1,5-a]pyrimidin-6-amine 0.25 acetate] is 99 nM.
Consider `NC1=NC(c2cccc(-c3cc(Cl)cc(Cl)c3)c2)(c2ccco2)C2=NCCCN12` (centres unmarked) [Example 50, 8-(3′,5′-Dichlorobiphenyl-3-yl)-8-(2-furyl)-2,3,4,8-tetrahydroimidazo[1,5-a]pyrimidin-6-amine acetate], for which the IC50 came out at 74 nM.
The figure for `NC1=NC(c2ccncc2)(c2cccc(-c3ccc(F)c(Cl)c3)c2)C2=NCCCN12` (centres unmarked) [Example 37, 8-(3′-Chloro-4′-fluorobiphenyl-3-yl)-8-pyridin-4-yl-2,3,4,8-tetrahydroimidazo[1,5-a]pyrimidin-6-amine 0.25 acetate] is 99 nM; for `NC1=NC(c2cccc(-c3cncnc3)c2)(c2ccncc2F)C2=NCC(F)(F)CN12` (centres unmarked) [Example 91, 3,3-Difluoro-8-(3-fluoropyridin-4-yl)-8-(3-pyrimidin-5-ylphenyl)-2,3,4,8-tetrahydroimidazo[1,5-a]pyrimidin-6-amine] it is 440 nM; for `NC1=NC(c2ccncc2)(c2cccc(-c3cccnc3F)c2)C2=NCCCN12` (centres unmarked) [Example 17, 8-[3-(2-Fluoropyridin-3-yl)phenyl]-8-pyridin-4-yl-2,3,4,8-tetrahydroimidazo[1,5-a]pyrimidin-6-amine 0.25 acetate] it is 150 nM.
